Where “and” joins values, the source holds several entries; their conditions need not be identical. Equal values may be shown once.
Legend:
[1] = molecular target: T1, VMAT2 (Rattus norvegicus, UniProt Q01827); experiment: Regional brain distribution and ratio vs cerebellum in rats (VMAT2 tracers); type: in vivo; settings: IV
T1 construct: from tissue; host or cells: live rats (normal male CD rats), dissected brain regions
Procedure: (§1) Three rats per group were used for each biodistribution study. While under isoflurane anesthesia, 0.2 mL of a saline solution containing 20 μCi of radioactive tracer was injected into the femoral vein. The rats were sacrificed at the time indicated by cardiac excision while under isoflurane anesthesia. Organs of interest were removed and weighed, and the radioactivity was counted. The percent dose per organ was calculated by comparing the tissue counts to counts of 1% of the initial dose (100 times diluted aliquots of the injected material) measured at the same time. Regional brain distribution in rats was measured after an iv injection of the radioactive tracer. Samples from different brain regions (cortex, striatum, hippocampus, cerebellum and hypothalamus) were dissected, weighed and counted. The percentage dose/g of each sample was calculated by comparing sample counts with the counts of the diluted initial dose described above. The ratio was calculated by dividing the percentage dose/g of each region by that of the cerebellum. The cerebellum was used as the reference region for calculating the ratio of target to non-target binding, because only a trace amount of VMAT2 binding site is present in the cerebellum.

[2] = Biodistribution in rats: ^18F-FP-(+)DTBZ vs ^18F-FP-DTBZ-D6; type: in vivo, rat; settings: for Biodistribution Blood / Biodistribution Bone / Biodistribution Brain / Biodistribution Heart / Biodistribution Kidney / Biodistribution Liver / Biodistribution Lung / Biodistribution Muscle / Biodistribution Pancreas / Biodistribution Skin / Biodistribution Spleen: IV
Procedure: as §1

[3] = 60 min, listed as 18F-FP-DTBZ-D6 (^18F-Ia)
[4] = 120 min, listed as 18F-FP-DTBZ-D6 (^18F-Ia)

T1 sequence (Q01827 whole entry): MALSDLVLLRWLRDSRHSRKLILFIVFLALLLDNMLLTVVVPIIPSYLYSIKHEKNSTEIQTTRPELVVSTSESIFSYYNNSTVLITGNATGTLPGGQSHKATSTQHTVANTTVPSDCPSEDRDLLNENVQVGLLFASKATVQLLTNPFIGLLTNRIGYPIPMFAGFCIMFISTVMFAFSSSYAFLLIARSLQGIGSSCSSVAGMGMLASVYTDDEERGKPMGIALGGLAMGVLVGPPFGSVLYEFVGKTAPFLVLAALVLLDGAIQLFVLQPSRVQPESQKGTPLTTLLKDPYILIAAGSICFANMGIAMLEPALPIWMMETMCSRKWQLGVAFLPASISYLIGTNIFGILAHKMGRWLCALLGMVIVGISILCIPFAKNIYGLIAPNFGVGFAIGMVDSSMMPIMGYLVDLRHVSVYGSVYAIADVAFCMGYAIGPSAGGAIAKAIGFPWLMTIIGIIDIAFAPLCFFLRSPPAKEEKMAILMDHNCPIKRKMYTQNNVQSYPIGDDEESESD

[2H]C([2H])([18F])C([2H])([2H])C([2H])([2H])Oc1cc2c(cc1OC)[C@H]1C[C@@H](O)[C@H](CC(C)C)CN1CC2 [^18F-FP-(+)DTBZ-D6 (^18F-Ia)]
Ratio vs. Cerebellum: Cerebellum ([1]; 2 min): 1.00 ± 0.00 | Ratio vs. Cerebellum: Cortex ([1]; 2 min): 1.36 ± 0.05 | Ratio vs. Cerebellum: Hippocampus ([1]; 2 min): 1.26 ± 0.04 | Ratio vs. Cerebellum: Hypothalamus ([1]; 2 min): 1.71 ± 0.10 | Ratio vs. Cerebellum: Remainder ([1]; 2 min): 1.33 ± 0.03 | Ratio vs. Cerebellum: Striatum ([1]; 2 min): 2.08 ± 0.30 | Regional Brain Distribution Cerebellum ([1]; 2 min): 0.48 ± 0.04 % dose/gram | Regional Brain Distribution Cortex ([1]; 2 min): 0.65 ± 0.07 % dose/gram | Regional Brain Distribution Hippocampus ([1]; 2 min): 0.60 ± 0.07 % dose/gram | Regional Brain Distribution Hypothalamus ([1]; 2 min): 0.82 ± 0.10 % dose/gram | Regional Brain Distribution Remainder ([1]; 2 min): 0.64 ± 0.07 % dose/gram | Regional Brain Distribution Striatum ([1]; 2 min): 1.00 ± 0.22 % dose/gram | Ratio vs. Cerebellum: Cerebellum ([1]; 60 min): 1.00 ± 0.00 | Ratio vs. Cerebellum: Cortex ([1]; 60 min): 1.13 ± 0.02 | Ratio vs. Cerebellum: Hippocampus ([1]; 60 min): 1.68 ± 0.12 | Ratio vs. Cerebellum: Hypothalamus ([1]; 60 min): 3.93 ± 0.15 | Ratio vs. Cerebellum: Remainder ([1]; 60 min): 1.59 ± 0.04 | Ratio vs. Cerebellum: Striatum ([1]; 60 min): 6.05 ± 0.43 | Regional Brain Distribution Cerebellum ([1]; 60 min): 0.23 ± 0.01 % dose/gram | Regional Brain Distribution Cortex ([1]; 60 min): 0.26 ± 0.01 % dose/gram | Regional Brain Distribution Hippocampus ([1]; 60 min): 0.39 ± 0.01 % dose/gram | Regional Brain Distribution Hypothalamus ([1]; 60 min): 0.91 ± 0.03 % dose/gram | Regional Brain Distribution Remainder ([1]; 60 min): 0.37 ± 0.02 % dose/gram | Regional Brain Distribution Striatum ([1]; 60 min): 1.40 ± 0.06 % dose/gram | Ratio vs. Cerebellum: Striatum [1, 3]: 6.05 | Ratio vs. Cerebellum: Cerebellum ([1]; 120 min): 1.00 ± 0.00 | Ratio vs. Cerebellum: Cortex ([1]; 120 min): 1.10 ± 0.09 | Ratio vs. Cerebellum: Hippocampus ([1]; 120 min): 1.74 ± 0.32 | Ratio vs. Cerebellum: Hypothalamus ([1]; 120 min): 3.56 ± 0.49 | Ratio vs. Cerebellum: Remainder ([1]; 120 min): 1.52 ± 0.03 | Ratio vs. Cerebellum: Striatum ([1]; 120 min): 5.49 ± 0.43 | Regional Brain Distribution Cerebellum ([1]; 120 min): 0.18 ± 0.01 % dose/gram | Regional Brain Distribution Cortex ([1]; 120 min): 0.20 ± 0.00 % dose/gram | Regional Brain Distribution Hippocampus ([1]; 120 min): 0.31 ± 0.04 % dose/gram | Regional Brain Distribution Hypothalamus ([1]; 120 min): 0.65 ± 0.11 % dose/gram | Regional Brain Distribution Remainder ([1]; 120 min): 0.28 ± 0.02 % dose/gram | Regional Brain Distribution Striatum ([1]; 120 min): 1.00 ± 0.08 % dose/gram | increase in total brain uptake vs ^18F-FP-(+)DTBZ ([2]; 120 min after iv injection): 40% | Biodistribution Blood ([2]; 2 min): 0.23 ± 0.03 % dose/g | Biodistribution Bone ([2]; 2 min): 0.33 ± 0.04 % dose/g | Biodistribution Brain ([2]; 2 min): 0.64 ± 0.07 % dose/g | Biodistribution Heart ([2]; 2 min): 0.69 ± 0.12 % dose/g | Biodistribution Kidney ([2]; 2 min): 1.89 ± 0.07 % dose/g | Biodistribution Liver ([2]; 2 min): 2.79 ± 0.12 % dose/g | Biodistribution Lung ([2]; 2 min): 0.87 ± 0.05 % dose/g | Biodistribution Muscle ([2]; 2 min): 0.17 ± 0.02 % dose/g | Biodistribution Pancreas ([2]; 2 min): 2.62 ± 0.15 % dose/g | Biodistribution Skin ([2]; 2 min): 0.24 ± 0.02 % dose/g | Biodistribution Spleen ([2]; 2 min): 1.04 ± 0.10 % dose/g | Biodistribution Blood ([2]; 60 min): 0.11 ± 0.01 % dose/g | Biodistribution Bone ([2]; 60 min): 0.47 ± 0.02 % dose/g | Biodistribution Brain ([2]; 60 min): 0.44 ± 0.02 % dose/g | Biodistribution Heart ([2]; 60 min): 0.26 ± 0.01 % dose/g | Biodistribution Kidney ([2]; 60 min): 0.66 ± 0.04 % dose/g | Biodistribution Liver ([2]; 60 min): 3.19 ± 0.46 % dose/g | Biodistribution Lung ([2]; 60 min): 0.49 ± 0.00 % dose/g | Biodistribution Muscle ([2]; 60 min): 0.11 ± 0.00 % dose/g | Biodistribution Pancreas ([2]; 60 min): 5.01 ± 0.69 % dose/g | Biodistribution Skin ([2]; 60 min): 0.25 ± 0.01 % dose/g | Biodistribution Spleen ([2]; 60 min): 0.66 ± 0.03 % dose/g | Biodistribution Bone [2, 3]: 0.47 % dose/g | Biodistribution Blood ([2]; 120 min): 0.10 ± 0.00 % dose/g | Biodistribution Bone ([2]; 120 min): 0.65 ± 0.03 % dose/g | Biodistribution Brain ([2]; 120 min): 0.34 ± 0.02 % dose/g | Biodistribution Heart ([2]; 120 min): 0.21 ± 0.01 % dose/g | Biodistribution Kidney ([2]; 120 min): 0.59 ± 0.02 % dose/g | Biodistribution Liver ([2]; 120 min): 3.10 ± 0.49 % dose/g | Biodistribution Lung ([2]; 120 min): 0.41 ± 0.01 % dose/g | Biodistribution Muscle ([2]; 120 min): 0.09 ± 0.01 % dose/g | Biodistribution Pancreas ([2]; 120 min): 4.49 ± 0.17 % dose/g | Biodistribution Skin ([2]; 120 min): 0.21 ± 0.01 % dose/g | Biodistribution Spleen ([2]; 120 min): 0.51 ± 0.03 % dose/g | Biodistribution Bone [2, 4]: 0.65 % dose/g | Biodistribution Brain [2, 4]: 0.34 % dose/g

COc1cc2c(cc1OCCC[18F])CCN1C[C@@H](CC(C)C)[C@H](O)C[C@H]21 [^18F-FP-(+)DTBZ, reference compound]
Ratio vs. Cerebellum: Cerebellum ([1]; 2 min): 1.00 ± 0.00 | Ratio vs. Cerebellum: Cortex ([1]; 2 min): 1.21 ± 0.04 | Ratio vs. Cerebellum: Hippocampus ([1]; 2 min): 1.19 ± 0.03 | Ratio vs. Cerebellum: Hypothalamus ([1]; 2 min): 1.57 ± 0.04 | Ratio vs. Cerebellum: Remainder ([1]; 2 min): 1.23 ± 0.03 | Ratio vs. Cerebellum: Striatum ([1]; 2 min): 1.66 ± 0.15 | Regional Brain Distribution Cerebellum ([1]; 2 min): 0.68 ± 0.06 % dose/gram | Regional Brain Distribution Cortex ([1]; 2 min): 0.82 ± 0.07 % dose/gram | Regional Brain Distribution Hippocampus ([1]; 2 min): 0.80 ± 0.07 % dose/gram | Regional Brain Distribution Hypothalamus ([1]; 2 min): 1.06 ± 0.10 % dose/gram | Regional Brain Distribution Remainder ([1]; 2 min): 0.83 ± 0.06 % dose/gram | Regional Brain Distribution Striatum ([1]; 2 min): 1.12 ± 0.04 % dose/gram | Ratio vs. Cerebellum: Cerebellum ([1]; 60 min): 1.00 ± 0.00 | Ratio vs. Cerebellum: Cortex ([1]; 60 min): 1.13 ± 0.09 | Ratio vs. Cerebellum: Hippocampus ([1]; 60 min): 1.64 ± 0.19 | Ratio vs. Cerebellum: Hypothalamus ([1]; 60 min): 3.91 ± 0.37 | Ratio vs. Cerebellum: Remainder ([1]; 60 min): 1.68 ± 0.07 | Ratio vs. Cerebellum: Striatum ([1]; 60 min): 5.66 and 5.66 ± 0.72 | Regional Brain Distribution Cerebellum ([1]; 60 min): 0.19 ± 0.02 % dose/gram | Regional Brain Distribution Cortex ([1]; 60 min): 0.21 ± 0.01 % dose/gram | Regional Brain Distribution Hippocampus ([1]; 60 min): 0.30 ± 0.01 % dose/gram | Regional Brain Distribution Hypothalamus ([1]; 60 min): 0.73 ± 0.11 % dose/gram | Regional Brain Distribution Remainder ([1]; 60 min): 0.31 ± 0.02 % dose/gram | Regional Brain Distribution Striatum ([1]; 60 min): 1.04 ± 0.05 % dose/gram | Ratio vs. Cerebellum: Cerebellum ([1]; 120 min): 1.00 ± 0.00 | Ratio vs. Cerebellum: Cortex ([1]; 120 min): 1.11 ± 0.09 | Ratio vs. Cerebellum: Hippocampus ([1]; 120 min): 1.79 ± 0.12 | Ratio vs. Cerebellum: Hypothalamus ([1]; 120 min): 4.04 ± 0.66 | Ratio vs. Cerebellum: Remainder ([1]; 120 min): 1.59 ± 0.09 | Ratio vs. Cerebellum: Striatum ([1]; 120 min): 6.54 ± 0.59 | Regional Brain Distribution Cerebellum ([1]; 120 min): 0.13 ± 0.01 % dose/gram | Regional Brain Distribution Cortex ([1]; 120 min): 0.15 ± 0.02 % dose/gram | Regional Brain Distribution Hippocampus ([1]; 120 min): 0.24 ± 0.03 % dose/gram | Regional Brain Distribution Hypothalamus ([1]; 120 min): 0.54 ± 0.11 % dose/gram | Regional Brain Distribution Remainder ([1]; 120 min): 0.21 ± 0.02 % dose/gram | Regional Brain Distribution Striatum ([1]; 120 min): 0.87 ± 0.12 % dose/gram | Biodistribution Blood ([2]; 2 min): 0.24 ± 0.03 % dose/g | Biodistribution Bone ([2]; 2 min): 0.45 ± 0.03 % dose/g | Biodistribution Brain ([2]; 2 min): 0.83 ± 0.06 % dose/g | Biodistribution Heart ([2]; 2 min): 0.96 ± 0.08 % dose/g | Biodistribution Kidney ([2]; 2 min): 2.66 ± 0.15 % dose/g | Biodistribution Liver ([2]; 2 min): 2.28 ± 0.04 % dose/g | Biodistribution Lung ([2]; 2 min): 1.03 ± 0.03 % dose/g | Biodistribution Muscle ([2]; 2 min): 0.11 ± 0.02 % dose/g | Biodistribution Pancreas ([2]; 2 min): 2.29 ± 0.36 % dose/g | Biodistribution Skin ([2]; 2 min): 0.19 ± 0.03 % dose/g | Biodistribution Spleen ([2]; 2 min): 1.19 ± 0.10 % dose/g | Biodistribution Blood ([2]; 60 min): 0.12 ± 0.00 % dose/g | Biodistribution Bone ([2]; 60 min): 1.13 ± 0.07 % dose/g | Biodistribution Brain ([2]; 60 min): 0.35 ± 0.03 % dose/g | Biodistribution Heart ([2]; 60 min): 0.22 ± 0.03 % dose/g | Biodistribution Kidney ([2]; 60 min): 0.63 ± 0.05 % dose/g | Biodistribution Liver ([2]; 60 min): 2.59 ± 0.21 % dose/g | Biodistribution Lung ([2]; 60 min): 0.41 ± 0.03 % dose/g | Biodistribution Muscle ([2]; 60 min): 0.10 ± 0.01 % dose/g | Biodistribution Pancreas ([2]; 60 min): 4.48 ± 0.27 % dose/g | Biodistribution Skin ([2]; 60 min): 0.24 ± 0.03 % dose/g | Biodistribution Spleen ([2]; 60 min): 0.50 ± 0.04 % dose/g | Biodistribution Blood ([2]; 120 min): 0.07 ± 0.01 % dose/g | Biodistribution Bone ([2]; 120 min): 1.86 % dose/g and 1.86 ± 0.24 % dose/g | Biodistribution Brain ([2]; 120 min): 0.26 % dose/g and 0.26 ± 0.03 % dose/g | Biodistribution Heart ([2]; 120 min): 0.16 ± 0.01 % dose/g | Biodistribution Kidney ([2]; 120 min): 0.45 ± 0.02 % dose/g | Biodistribution Liver ([2]; 120 min): 2.12 ± 0.20 % dose/g | Biodistribution Lung ([2]; 120 min): 0.31 ± 0.02 % dose/g | Biodistribution Muscle ([2]; 120 min): 0.07 ± 0.00 % dose/g | Biodistribution Pancreas ([2]; 120 min): 3.56 ± 0.42 % dose/g | Biodistribution Skin ([2]; 120 min): 0.17 ± 0.01 % dose/g | Biodistribution Spleen ([2]; 120 min): 0.37 ± 0.05 % dose/g

Reference: patent US12544463B2, “Deuterium substituted positron emission tomography (PET) imaging agents and their pharmacological application” (Five Eleven Pharma Inc., priority 2017, dated 2026)
